# System: Meerschweinchen
# Assay: Anti-dandruff test: oleic-acid-induced scaling and skin thickening on shaved guinea pig back
# Format: in vivo
# Settings: 5 % test substance with 5 % Ölsäure in 70 % ethanol, topical on the back, 60 min exposure, 4 consecutive days, evaluated on day 7, inhibition vs skin treated with oleic acid only; for Hautdickenmessung Hemmung %: skin fold thickness by Cutimeter nach Götze; for Hautschuppenmessung Hemmung %: visual scaling score on scale 0-4
# Description: Die Prüfung auf Antischuppenwirkung wurde in folgender Weise durchgeführt, wobei B) als mit Natronlauge auf einen pH-Wert von 6 neutralisiertes Produkt zum Einsatz gelangte:
# Die Prüfsubstanzen wurden in 5 %iger Konzentration zusammen mit 5 % Ölsäure in 70 %igem Ethanol gelöst und in alternierender Reihenfolge und in rotierendem Schema auf den Rücken junger, geschorener weiblicher Meerschweinchen im Gewicht von 600 ± 50 g aufgetragen. Die Einwirkungszeit der Substanzen wurde dabei auf 60 Minuten begrenzt, da diese Zeit ausreichte, um eine Wirkung zu erzielen. Anschließend wurden die Tiere mit warmem Wasser 30 Sekunden lang abgeduscht. Die Reihenfolge der Tiere bei der Applikation wechselte dabei täglich, um Differenzen in der Einwirkungszeit zwischen dem ersten und letzten Tier der Gruppe auf ein Minimum zu begrenzen. Diese Behandlung geschah an vier aufeinanderfolgenden Tagen, darauf folgte eine Ruhezeit (Entwicklungszeit von drei Tagen). Am siebenten Tag wurde ausgewertet, und zwar a) kutimetrisch auf Hautfaltendicke instrumentell mit dem Cutimeter nach Götze und b) visuell auf Schuppenbildung bzw. Hemmung nach einer 4-Punkte-Skala folgender Definition: • 0 = keine Schuppen • 1 = leichte Schuppen • 2 = kräftige Schuppen • 3 = starke Schuppen mit Rötung • 4 = Krusten mit Aufrichten der Haare.
# Die Versuchsgruppen bestanden aus jeweils 6 Tieren. Die Kollektive wurden mathematisch auf Homogenität geprüft und nach Eliminierung signifikant abweichender Tiere wurden Mittelwert und Streuung für jede Substanz berechnet. Diese wurden in Beziehung gesetzt zu den Werten der nur mit 5 % Ölsäure in 70 %igem Ethanol behandelten Haut und daraus die Signifikanz der Hemmwirkung bestimmt. Das Ergebnis der Prüfung ist der nachstehenden Tabelle 1 zu entnehmen.
SMILES,Hautdickenmessung Hemmung % [%],Hautschuppenmessung Hemmung % [%]
"CCOC(=O)CCCCCNC(=O)c1cc(OC)c(OC)c(OC)c1 [Wirkstoff A, N-(3,4,5-Trimethoxy-benzoyl)-6-amino-capronsäure-ethylester]",15,100
"COc1cc(C(=O)NCCCCCC(=O)O)cc(OC)c1OC [Wirkstoff B, N-(3,4,5-Trimethoxy-benzoyl)-6-amino-carbonsäure]",10,50
